Data reported in ChEMBL document CHEMBL4330074, “Discovery of potent azaindazole leucine-rich repeat kinase 2 (LRRK2) inhibitors possessing a key intramolecular hydrogen bond - Part 2” (Bioorg Med Chem Lett, 2019).

Experiments:
[1] = target: T1, Leucine-rich repeat serine/threonine-protein kinase 2 (Homo sapiens, UniProt Q5S007, G2019S); assay: Inhibition of LRRK2 G2019S mutant (unknown origin) by cell based assay
[2] = target: T1, Leucine-rich repeat serine/threonine-protein kinase 2; assay: Inhibition of recombinant human GST-tagged LRRK2 G2019S mutant catalytic domain (970 to 2527 residues) expressed in insect cells using RtGWWRFYTLRRARQGNTKQR as substrate measured after 180 mins in presence of [gamma33P]ATP by topcount method
[3] = system: P-gp (human MDR1); assay: Efflux ratio of permeability from basolateral to apical side over apical to basolateral side in MDCK-MDR1 cells harboring human P-gp at 5 uM; format: ADME, cell-based, Canis lupus familiaris; conditions: dog
[4] = organism: Homo sapiens; assay: Selectivity ratio of Ki for JAK2 (unknown origin) to Ki for recombinant human GST-tagged LRRK2 G2019S mutant catalytic domain (970 to 2527 residues) expressed in insect cells
[5] = target: Maternal embryonic leucine zipper kinase (Homo sapiens) (UniProt Q14680); assay: Inhibition of MELK (unknown origin) at 1 uM relative to control
[6] = target: T2, Dual specificity protein kinase TTK (Homo sapiens) (UniProt P33981); assay: Inhibition of TTK (unknown origin) at 1 uM relative to control
T2 sequence (whole entry): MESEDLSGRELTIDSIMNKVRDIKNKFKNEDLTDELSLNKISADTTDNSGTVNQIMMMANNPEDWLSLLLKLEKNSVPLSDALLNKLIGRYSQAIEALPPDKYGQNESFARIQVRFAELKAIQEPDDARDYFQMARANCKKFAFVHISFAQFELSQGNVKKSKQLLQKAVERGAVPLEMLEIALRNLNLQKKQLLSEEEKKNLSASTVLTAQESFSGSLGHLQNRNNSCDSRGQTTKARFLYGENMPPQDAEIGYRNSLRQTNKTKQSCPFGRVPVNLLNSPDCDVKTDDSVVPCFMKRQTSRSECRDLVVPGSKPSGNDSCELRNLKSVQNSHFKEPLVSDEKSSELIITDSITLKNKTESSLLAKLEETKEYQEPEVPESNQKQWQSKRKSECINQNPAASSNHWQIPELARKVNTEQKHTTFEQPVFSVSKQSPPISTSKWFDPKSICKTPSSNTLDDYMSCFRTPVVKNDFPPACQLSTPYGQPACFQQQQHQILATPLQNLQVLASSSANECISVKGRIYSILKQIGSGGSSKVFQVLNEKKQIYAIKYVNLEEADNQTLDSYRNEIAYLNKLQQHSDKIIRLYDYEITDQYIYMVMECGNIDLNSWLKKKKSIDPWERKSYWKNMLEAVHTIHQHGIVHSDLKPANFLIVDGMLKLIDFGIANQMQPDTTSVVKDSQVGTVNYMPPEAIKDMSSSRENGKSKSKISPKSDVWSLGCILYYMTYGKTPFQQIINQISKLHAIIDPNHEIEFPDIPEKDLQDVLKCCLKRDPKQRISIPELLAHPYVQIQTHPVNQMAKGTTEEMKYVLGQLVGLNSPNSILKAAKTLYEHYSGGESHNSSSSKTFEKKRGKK

[7] = Clearance in rat at 0.5 to 1 mg/kg, iv; format: ADME, organism-based; conditions: in vivo
[8] = Clearance in rat at 0.5 mg/kg, iv; format: ADME, organism-based; conditions: in vivo
[9] = Oral bioavailability in rat at 1 mg/kg; format: ADME, organism-based; conditions: in vivo
[10] = Ratio of AUC in rat brain to plasma at 0.5 mg/kg, iv; format: ADME, organism-based; conditions: brain and plasma, read-out: Ratio AUC
[11] = target: Serine/threonine-protein kinase 26 (Homo sapiens) (UniProt Q9P289); assay: Inhibition of MST4 (unknown origin) at 1 uM relative to control
[12] = Ratio of fAUC in rat brain to plasma at 0.5 mg/kg, iv; format: ADME, organism-based; conditions: brain and plasma
[13] = target: TAK1/TAB1 (Homo sapiens) (UniProt Q15750+O43318); assay: Inhibition of TAK1/TAB1 (unknown origin) at 1 uM relative to control; format: protein-complex assay

T1 sequence (Q5S007 whole entry G2019S, the tested form may be a part): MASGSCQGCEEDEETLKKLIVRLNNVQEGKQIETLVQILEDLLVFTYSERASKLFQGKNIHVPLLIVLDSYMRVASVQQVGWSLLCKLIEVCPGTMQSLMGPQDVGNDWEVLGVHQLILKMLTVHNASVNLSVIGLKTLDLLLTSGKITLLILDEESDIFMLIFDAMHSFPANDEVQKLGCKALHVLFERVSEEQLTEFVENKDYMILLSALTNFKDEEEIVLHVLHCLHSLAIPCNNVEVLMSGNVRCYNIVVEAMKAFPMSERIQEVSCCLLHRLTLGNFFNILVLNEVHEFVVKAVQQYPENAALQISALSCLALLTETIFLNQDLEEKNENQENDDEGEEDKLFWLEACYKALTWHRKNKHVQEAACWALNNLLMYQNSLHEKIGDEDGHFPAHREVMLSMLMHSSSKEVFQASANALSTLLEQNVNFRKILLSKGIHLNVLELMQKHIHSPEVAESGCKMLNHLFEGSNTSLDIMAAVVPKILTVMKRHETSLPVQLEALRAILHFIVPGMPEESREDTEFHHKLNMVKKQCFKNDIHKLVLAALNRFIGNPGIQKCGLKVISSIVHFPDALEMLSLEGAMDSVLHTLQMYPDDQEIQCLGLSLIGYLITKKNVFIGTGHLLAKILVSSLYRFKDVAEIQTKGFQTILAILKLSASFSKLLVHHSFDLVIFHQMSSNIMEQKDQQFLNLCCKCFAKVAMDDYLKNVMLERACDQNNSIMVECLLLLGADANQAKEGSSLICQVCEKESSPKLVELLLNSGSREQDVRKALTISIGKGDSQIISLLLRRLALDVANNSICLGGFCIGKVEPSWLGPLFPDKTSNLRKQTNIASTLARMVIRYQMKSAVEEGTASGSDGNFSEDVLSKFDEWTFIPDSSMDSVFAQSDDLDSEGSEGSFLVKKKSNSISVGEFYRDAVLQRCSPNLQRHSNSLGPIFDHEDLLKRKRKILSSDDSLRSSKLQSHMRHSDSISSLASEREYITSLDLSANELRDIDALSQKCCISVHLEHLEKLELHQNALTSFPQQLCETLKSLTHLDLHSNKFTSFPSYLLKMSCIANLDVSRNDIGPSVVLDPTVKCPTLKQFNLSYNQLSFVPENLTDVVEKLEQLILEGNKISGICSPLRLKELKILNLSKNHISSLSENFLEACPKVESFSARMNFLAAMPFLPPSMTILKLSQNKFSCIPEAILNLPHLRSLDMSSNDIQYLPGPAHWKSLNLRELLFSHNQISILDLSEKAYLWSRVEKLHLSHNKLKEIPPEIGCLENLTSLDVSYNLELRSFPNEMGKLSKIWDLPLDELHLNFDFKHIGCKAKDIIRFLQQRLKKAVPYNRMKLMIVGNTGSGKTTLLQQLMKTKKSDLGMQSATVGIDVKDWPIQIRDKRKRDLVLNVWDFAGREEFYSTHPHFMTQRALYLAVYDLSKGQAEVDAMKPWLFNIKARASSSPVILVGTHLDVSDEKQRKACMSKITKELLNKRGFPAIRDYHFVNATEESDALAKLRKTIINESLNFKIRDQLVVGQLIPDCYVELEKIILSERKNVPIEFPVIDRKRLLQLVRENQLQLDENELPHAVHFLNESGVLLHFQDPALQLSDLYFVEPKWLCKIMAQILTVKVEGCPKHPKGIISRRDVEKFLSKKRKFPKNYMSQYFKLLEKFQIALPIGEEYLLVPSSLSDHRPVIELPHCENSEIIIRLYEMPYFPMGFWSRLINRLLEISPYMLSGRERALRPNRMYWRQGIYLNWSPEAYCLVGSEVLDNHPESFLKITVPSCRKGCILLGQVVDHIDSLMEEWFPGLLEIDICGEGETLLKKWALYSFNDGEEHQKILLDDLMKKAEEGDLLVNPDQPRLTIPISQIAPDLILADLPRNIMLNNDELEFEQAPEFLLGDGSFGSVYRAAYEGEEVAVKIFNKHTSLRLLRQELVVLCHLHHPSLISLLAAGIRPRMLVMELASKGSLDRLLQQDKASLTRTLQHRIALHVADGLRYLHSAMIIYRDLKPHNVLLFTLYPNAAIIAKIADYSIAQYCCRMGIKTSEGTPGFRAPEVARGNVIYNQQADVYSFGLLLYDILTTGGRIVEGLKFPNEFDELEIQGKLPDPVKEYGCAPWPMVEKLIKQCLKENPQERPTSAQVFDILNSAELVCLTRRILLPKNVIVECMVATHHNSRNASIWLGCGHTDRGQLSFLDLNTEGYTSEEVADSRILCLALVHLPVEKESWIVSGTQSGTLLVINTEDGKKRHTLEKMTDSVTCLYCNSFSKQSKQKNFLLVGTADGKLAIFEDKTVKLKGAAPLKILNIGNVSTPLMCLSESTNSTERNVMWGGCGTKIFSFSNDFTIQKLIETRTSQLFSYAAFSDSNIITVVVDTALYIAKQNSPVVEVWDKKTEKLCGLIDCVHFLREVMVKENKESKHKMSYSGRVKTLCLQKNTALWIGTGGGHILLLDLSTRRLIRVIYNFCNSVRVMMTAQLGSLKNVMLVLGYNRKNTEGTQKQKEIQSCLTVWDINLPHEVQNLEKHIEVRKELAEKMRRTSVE
Sequence of Serine/threonine-protein kinase 26 (Homo sapiens) (Q9P289 2-416 limits assumed): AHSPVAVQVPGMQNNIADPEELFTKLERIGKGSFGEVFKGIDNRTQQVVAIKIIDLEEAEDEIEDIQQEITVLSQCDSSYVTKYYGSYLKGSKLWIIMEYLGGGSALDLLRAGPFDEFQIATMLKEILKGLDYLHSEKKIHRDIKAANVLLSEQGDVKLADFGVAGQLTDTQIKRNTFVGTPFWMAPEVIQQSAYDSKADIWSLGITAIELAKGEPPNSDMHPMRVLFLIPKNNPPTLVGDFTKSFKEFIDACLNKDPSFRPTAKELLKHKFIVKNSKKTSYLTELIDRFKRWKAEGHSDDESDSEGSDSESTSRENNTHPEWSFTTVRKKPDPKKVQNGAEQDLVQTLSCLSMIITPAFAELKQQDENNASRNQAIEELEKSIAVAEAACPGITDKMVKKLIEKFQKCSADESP
Sequence of Maternal embryonic leucine zipper kinase (Homo sapiens) (Q14680 whole entry, looked up): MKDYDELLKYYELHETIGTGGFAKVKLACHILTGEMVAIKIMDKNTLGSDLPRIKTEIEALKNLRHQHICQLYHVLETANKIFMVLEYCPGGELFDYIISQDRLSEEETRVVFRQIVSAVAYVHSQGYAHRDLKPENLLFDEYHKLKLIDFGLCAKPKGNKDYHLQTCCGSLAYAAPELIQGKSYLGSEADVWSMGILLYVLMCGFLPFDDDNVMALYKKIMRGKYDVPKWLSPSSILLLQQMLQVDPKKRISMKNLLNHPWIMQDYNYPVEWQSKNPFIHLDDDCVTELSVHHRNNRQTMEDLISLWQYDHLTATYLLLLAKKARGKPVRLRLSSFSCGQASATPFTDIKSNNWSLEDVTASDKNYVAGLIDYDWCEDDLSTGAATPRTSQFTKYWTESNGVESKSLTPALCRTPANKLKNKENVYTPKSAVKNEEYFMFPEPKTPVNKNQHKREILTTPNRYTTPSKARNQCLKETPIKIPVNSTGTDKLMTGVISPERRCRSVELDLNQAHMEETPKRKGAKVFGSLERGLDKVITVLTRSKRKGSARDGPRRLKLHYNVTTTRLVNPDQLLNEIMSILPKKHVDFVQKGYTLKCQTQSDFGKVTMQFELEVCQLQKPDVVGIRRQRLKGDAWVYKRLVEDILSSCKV

| SMILES | IC50 [1] [µM] | Ki [2] [µM] | efflux ratio at 5 µM [3] | other results |
| --- | --- | --- | --- | --- |
| CC(C)n1cc(-c2n[nH]c3ccnc(NC4CCOCC4)c23)nn1 | 0.049 | 0.0012 | 23 | – |
| c1cc(-c2n[nH]c3ccnc(OC4CCOCC4)c23)[nH]n1 | – | 0.044 | – | – |
| CC(C)Nc1nccc2[nH]nc(-c3nnc(C4CC4)n3C)c12 | – | 0.151 | – | – |
| c1cc(-c2n[nH]c3ccnc(OC4CCOCC4)c23)cc(N2CCOCC2)n1 | 0.024 | 0.0042 | 3.4 | Ratio Ki [4]: 882; inhibition [5]: 60%; inhibition [6]: 86%; clearance [7]: 4.14 L/h/kg |
| CCc1cc(-c2n[nH]c3ccnc(NC4CCOCC4)c23)nn1C | 0.0045 | 0.0005 | 10 | – |
| c1cc(-c2n[nH]c3ccnc(OC4CCOCC4)c23)nc(N2CCOCC2)c1 | – | 0.147 | – | – |
| CC(C)c1n[nH]c(-c2n[nH]c3ccnc(OC4CCOCC4)c23)n1 | – | 4.6 | – | – |
| c1cc(-c2n[nH]c3ccnc(NC4CCOCC4)c23)cc(N2CCOCC2)n1 | 0.135 | – | 1.5 | clearance [7]: 7.02 L/h/kg |
| CCc1cc(-c2n[nH]c3ccnc(NC4CCOCC4)c23)n(C)n1 | – | 3.9 | 11 | – |
| Cc1[nH]nc2ccnc(NC3CCOCC3)c12 | – | – | – | Ratio Ki [4]: 20 |
| CCc1cc(-c2n[nH]c3ccnc(NC(C)C)c23)nn1C | – | 0.0035 | 4 | – |
| Cc1n[nH]c2ccnc(OC3CCOCC3)c12 | 0.301 | 0.044 | 0.9 | Ratio Ki [4]: 20; clearance [7]: 2.04 L/h/kg |
| Cc1n[nH]c2ccnc(NC3CCOCC3)c12 | 0.426 | 0.182 | 1.1 | clearance [7]: 1.5 L/h/kg |
| FC(F)(F)c1cc(-c2n[nH]c3ccnc(NC4CCOCC4)c23)ncn1 | 0.024 | 0.0041 | 1.4 | Ratio Ki [4]: 1000; clearance [8]: 1.08 L/h/kg; bioavailability [9]: 62%; Kp [10]: 1; inhibition [6]: 52%; inhibition [11]: 59%; Kp uu [12]: 0.22; inhibition [13]: 51% |
| CC(C)c1nc(-c2n[nH]c3ccnc(NC4CCOCC4)c23)n[nH]1 | 0.035 | 0.0078 | 21 | clearance [8]: 2.1 L/h/kg |
| CC(C)(O)Cn1cc(-c2n[nH]c3ccnc(OC4CCOCC4)c23)cn1 | 0.013 | 0.021 | 80 | clearance [8]: 1.8 L/h/kg |
| c1ccc(-c2n[nH]c3ccnc(NC4CCOCC4)c23)nc1 | 0.041 | 0.0031 | 3.6 | clearance [8]: 1.32 L/h/kg |
